Data taken from patent publication US9522167B2, “Alphanizomenon flos aquae preparation, extracts and purified components thereof for the treatment of neurological, neurodegenerative and mood disorders” (Nutratec, s.r.l., priority 2006, dated 2016).

Legend:
[1] = test system: MAO-B; details: literature values (ref. 45), cited from earlier work; for IC50: read-out: IC50 of MAO-B inhibition; for Ki: read-out: Ki of MAO-B inhibition
[2] = test system: neurons; experiment: Neuroprotection against glutamate-induced apoptosis of cultured neurons (DAPI staining); type: cell-based; details: glutamate 100 μM plus 10 μM glycine, 30 min pre-incubation, apoptosis after 24 h
Protocol: The exposure of neurons to glutamate was carried according to a slightly modified method (50): culture medium was removed and neurons were washed once with prewarmed 37° C. buffered Hanks' solution (5.26 mM KCl, 0.43 mM KH2H2PO4, 132.4 mM NaCl, 4.09 mM NaHCO3, 0.33 mM Na2HPO4, 20 mM glucose, 2 mM CaCl2, and 20 mM HEPES, pH 7.4) and pre-incubated in the absence or presence of several concentrations of AFA extract (1-50 nM), PC (10-1000 nM), PCB (10-1000 nM) and MAA (1-10 μM) in prewarmed 37° C. buffered Hanks' solution. After 30 min of pre-incubation, L-glutamate was added from concentrated solutions to the final concentration indicated 100 μM plus 10 μM glycine. […]
Apoptosis was assessed by staining the nuclei of cells with DAPI (50), a membrane-permeable fluorescent dye that binds DNA and allows quantification of apoptotic neurons, i.e., neurons displaying fragmented or condensed nuclei. […] Cells were scored for chromatin condensation by fluorescence microscopy, using a fluorescein filter (330-380 excitation; 30× magnification). Total and apoptotic nuclei were counted. In all cases, approximately 600-1,000 cells were counted per well by an operator blind to the protocol design. Measurements from individual cultures were performed in duplicate and results are expressed as the mean S.E.M. values for the number of culture preparations indicated. […]

Molecule: Oc1cc(O)c2c(c1)OC(c1ccc(O)c(O)c1)C(O)C2 (stereo not drawn) [Catechine]
- Inhibition type [1]: Mixed
- IC50 [1]: 88.6 µM

Molecule: Cc1cc(O)c2c(c1)C(=O)c1cc(O)cc(O)c1C2=O [Emodin]
- Inhibition type [1]: Mixed
- IC50 [1]: 35.4 µM
- Ki [1]: 15.1 µM

Molecule: COc1ccc(C(C)=O)c(O)c1 [Paeonol]
- Inhibition type [1]: Competitive
- IC50 [1]: 42.5 µM
- Ki [1]: 38.2 µM

Molecule: Epicatechine
- Inhibition type [1]: Mixed
- IC50 [1]: 58.9 µM
- Ki [1]: 21 µM

Molecule: phycocyanobilin [PCB]
- amount lowering apoptosis below the control level [2]: approximately 10 nM
